Converted amounts (≈) assume the structure as drawn.
What was measured:
[1] = tested on: various microbes of paper-industry waste paste; settings: inoculated with microbes, within two days
Procedure: The test was conducted so that each solution to be investigated was taken into two plastic sample flasks, 60 ml into each. One of the two flasks was inoculated with 2 g of paper-industry waste paste containing various microbes, such paste being known as a favorable growth medium for microbes. After mixing, the samples were allowed to stand at room temperature for 2 days.
Culture tests were performed on the samples in a laboratory specialized in microbiologic assays.
The assay of aerobic bacteria was performed using a PCA substrate and incubation for 2 days at 37° C. For the assay of anaerobic bacteria, Brewer's agar and incubation for 2 days in anaerobic vessels at 37° C. were used. In the assay of slime-forming bacteria, PCA-agar+saccharose 50 g/l and incubation for 2 days at 37° C. were used. The slimy colonies were counted. Yeasts and molds were assayed using a Saboraud maltose agar substrate and incubation for 3-4 days at 30° C.

[2] = tested on: Pseudomonas putila bacterium; settings: cited from earlier work

Row | Compound | Effect on inoculated microbes [1] | EC 50 value [2] [µg/mL]
1 | O=C[O-].[K+] [potassium formate] | does not form a growth medium for microbes | –
2 | CCC(=O)O [propionic acid] | – | 59.6 (≈ 805 µM)
3 | O=CO [formic acid] | – | 46.7 (≈ 1010 µM)

Reference: patent US6835323B2, “Aqueous hydraulic medium” (Kemira Oyj, priority 1999, dated 2004)
